Data from ChEMBL document CHEMBL1144719, “1-(1-Arylethylidene)thiosemicarbazide derivatives: a new class of tyrosinase inhibitors” (Bioorg Med Chem, 2008).

molecular target: T1, Tyrosinase (Agaricus bisporus) (UniProt O42713); assay: Inhibition of mushroom tyrosinase at 0.10 mM
T1 sequence (whole entry): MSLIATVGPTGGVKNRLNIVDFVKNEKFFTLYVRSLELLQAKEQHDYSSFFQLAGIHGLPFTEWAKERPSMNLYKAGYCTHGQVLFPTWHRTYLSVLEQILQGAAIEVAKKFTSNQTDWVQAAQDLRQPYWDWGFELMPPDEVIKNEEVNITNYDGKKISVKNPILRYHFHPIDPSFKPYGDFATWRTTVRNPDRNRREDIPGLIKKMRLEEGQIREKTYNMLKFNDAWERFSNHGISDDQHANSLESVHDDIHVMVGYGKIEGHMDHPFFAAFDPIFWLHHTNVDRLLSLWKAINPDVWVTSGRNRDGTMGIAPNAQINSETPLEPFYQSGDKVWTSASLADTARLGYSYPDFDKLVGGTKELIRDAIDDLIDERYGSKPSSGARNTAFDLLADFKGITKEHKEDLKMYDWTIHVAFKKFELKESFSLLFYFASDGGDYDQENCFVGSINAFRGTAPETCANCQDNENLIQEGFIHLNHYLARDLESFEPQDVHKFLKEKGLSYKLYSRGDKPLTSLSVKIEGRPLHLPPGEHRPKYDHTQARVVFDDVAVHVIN

inhibition	SMILES
47%	NC(=S)N/N=C(/C(=O)c1ccccc1)c1ccccc1

molecular target: T1, Tyrosinase (Agaricus bisporus); assay: Inhibition of mushroom tyrosinase at 2 mM

SMILES	inhibition
NNC(N)=S [THIOSEMICARBAZIDE]	39.9%
COc1ccc(C(C)=O)cc1 [P-METHOXY-ACETOPHENONE]	47.2%

molecular target: T2, Tyrosinase (Agaricus bisporus, UniProt O42713)
T2 sequence (O42713 whole entry): T1 sequence (whole entry)

IC50	SMILES
0.88 µM	C/C(=N/NC(N)=S)c1cnccn1
410 µM	COc1ccc(/C=C/C(=O)O)cc1 [4-METHOXYCINNAMIC ACID]
0.14 µM	C/C(=N/NC(N)=S)c1cccs1
0.31 µM	C/C(=N/NC(N)=S)c1ccc(O)cc1
0.34 µM	C/C(=N/NC(N)=S)c1ccccc1 [ACETOPHENONE-THIOSEMICARBAZONE]
0.58 µM	C/C(=N/NC(N)=S)c1ccc(O)cc1O
0.17 µM	C/C(=N/NC(N)=S)c1ccc(F)cc1
0.15 µM	C/C(=N/NC(N)=S)c1ccc(/C(C)=N\NC(N)=S)cc1
0.54 µM	C/C(CCc1ccc(O)cc1)=N/NC(N)=S
2000 µM	COc1ccc(C(C)=O)cc1 [P-METHOXY-ACETOPHENONE]
0.82 µM	C/C(=N/NC(N)=S)c1cccnc1
0.52 µM	C/C(=N/NC(N)=S)c1ccc(Br)cc1
0.42 µM	COc1ccc(C/C(C)=N\NC(N)=S)cc1
100 µM	NC(=S)N/N=C(/C(=O)c1ccccc1)c1ccccc1
55.5 µM	NC(=S)N/N=C(\c1ccccc1)C(O)c1ccccc1 (stereo unspecified)
850 µM	CC(=O)c1ccccc1 [ACETOPHENONE]
1 µM	C/C(=N/NC(N)=S)c1ccc(C(C)C)cc1
22 µM	C/C(=N/NC(N)=S)c1c(O)cc(O)cc1O
0.27 µM	C/C(=N/NC(N)=S)c1ccc(C)cc1
0.11 µM	COc1ccc(/C(C)=N\NC(N)=S)cc1

SMILES	IC50
NNC(N)=S [THIOSEMICARBAZIDE]	2000 µM
CC(=O)c1ccc(F)cc1	990 µM
O=c1cccccc1O [TROPOLONE]	0.4 µM
